# Results taken from patent US11166977B2, “Compositions for treating meibomian gland dysfunction” (ADS THERAPEUTICS LLC, priority 2019, dated 2021).
# What was measured:
# [1] = tested on: Patients with Primary or Recurrent Pterygium; experiment: Phase 2a clinical trial in pterygium patients: ocular symptom and PSLQ questionnaire scores; format: in vivo, human
# From the text: 2-HP-β-CD Formulation I was used as vehicle.
# A trend of effects also remained after the stop of treatment at weeks 8, 16, and 24. The other questions didn't generate statistically significant effects.
# These ocular symptoms are often observed in MGD patients. Scores of these symptoms were graded by patients as part of PSLQ questionnaires.
# [2] = Aqueous solution at 37° C.; concentration of CDs 1.0 × 10^−2M; cited from earlier work
molecule,measurement,setting,value
2-Hydroxypropyl-beta-cyclodextrin [Formulation 2-HP-β-CD],"PSLQ Overall Average Score, Baseline Mean (SD)","[1]; Baseline, Modified Intent-to-Treat Population, N = 23",0.70 (0.66)
same,"PSLQ Average Ocular Symptom Score, Baseline Mean (SD)","[1]; Baseline, mITT, N = 23",0.88 (0.81)
same,"PSLQ Average Quality of Life Impact Score, Baseline Mean (SD)","[1]; Baseline, mITT, N = 23",0.57 (0.92)
same,"PSLQ Average Vision-Related Functioning Score, Baseline Mean (SD)","[1]; Baseline, mITT, N = 23",0.57 (0.80)
same,"PSLQ Average Vision-Related Functioning Score, Change from Baseline Mean (SD)","[1]; Week 2, mITT, N = 23",−0.27 (0.65)
same,"PSLQ Average Vision-Related Functioning Score, Change from Baseline Mean (SD)","[1]; Week 4, mITT, N = 23",−0.48 (0.65)
same,"PSLQ Average Vision-Related Functioning Score, Change from Baseline Mean (SD)","[1]; Week 8, mITT, N = 23",−0.43 (0.62)
same,"PSLQ Average Vision-Related Functioning Score, Change from Baseline Mean (SD)","[1]; Week 16, mITT, N = 23",−0.23 (0.56)
same,"PSLQ Average Vision-Related Functioning Score, Change from Baseline Mean (SD)","[1]; Week 24, mITT, N = 23",−0.11 (1.1)
same,PSLQ scores compared to the baseline (in words),"[1]; human, in vivo",significant improvements
"OC[C@H]1O[C@@H]2O[C@H]3[C@H](O)[C@@H](O)[C@@H](O[C@H]4[C@H](O)[C@@H](O)[C@@H](O[C@H]5[C@H](O)[C@@H](O)[C@@H](O[C@H]6[C@H](O)[C@@H](O)[C@@H](O[C@H]7[C@H](O)[C@@H](O)[C@@H](O[C@H]1[C@H](O)[C@H]2O)O[C@@H]7CO)O[C@@H]6CO)O[C@@H]5CO)O[C@@H]4CO)O[C@@H]3CO [Alpha-CD, alpha-cyclodextrin]",Increase in Absorbance (600 nm) Due to Cholesterol Dissolved by CDs,[2],zero
"COCC1O[C@@H]2O[C@@H]3C(COC)O[C@H](O[C@@H]4C(COC)O[C@H](O[C@@H]5C(COC)O[C@H](O[C@@H]6C(COC)O[C@H](O[C@@H]7C(COC)O[C@H](O[C@@H]8C(COC)O[C@H](O[C@H]1C(O)C2OC)C(OC)C8O)C(OC)C7O)C(OC)C6O)C(OC)C5O)C(OC)C4O)C(OC)C3O (stereo partly drawn) [DOM-beta-CD, 2,6-Di-O-methyl-beta-cyclodextrin]",Increase in Absorbance (600 nm) Due to Cholesterol Dissolved by CDs,[2],a remarkable increase in absorbance
"OC[C@H]1O[C@@H]2O[C@H]3[C@H](O)[C@@H](O)[C@@H](O[C@H]4[C@H](O)[C@@H](O)[C@@H](O[C@H]5[C@H](O)[C@@H](O)[C@@H](O[C@H]6[C@H](O)[C@@H](O)[C@@H](O[C@H]7[C@H](O)[C@@H](O)[C@@H](O[C@H]8[C@H](O)[C@@H](O)[C@@H](O[C@H]9[C@H](O)[C@@H](O)[C@@H](O[C@H]1[C@H](O)[C@H]2O)O[C@@H]9CO)O[C@@H]8CO)O[C@@H]7CO)O[C@@H]6CO)O[C@@H]5CO)O[C@@H]4CO)O[C@@H]3CO [Gamma-CD, gamma-cyclodextrin]",Increase in Absorbance (600 nm) Due to Cholesterol Dissolved by CDs,[2],zero
"COC(=O)c1ccc2c(c1)NC(=O)/C2=C(\Nc1ccc(N(C)C(=O)CN2CCN(C)CC2)cc1)c1ccccc1 [Nintedanib 0.2%, nintedanib, reference compound]","PSLQ scores, Nintedanib 0.2% vs Vehicle (in words)",[1]; pterygium patients with dry eye condition,no statistically significant differences
